Patent publication US11517596B2, “Method for alleviating arthritis with postbiotic extract” (CHAMBIO CO., LTD., priority 2020, dated 2022)

Legend:
SW1353 cells [1] = assay: Determination of TGF-β content (ELISA) of SW1353 cell cultures treated with postbiotic extract and/or nutritional component; format: cell-based, Human; settings: 24 hours
Experimental: (§1) • 2. Human primary central chondrosarcoma cell line SW1353 was purchased from the Bioresource Collection and Research Center of the Food Industry Research and Development Institute (BCRC of FIRDI, Taiwan). SW1353 cells were grown in a 10-cm Petri dish containing Dulbecco's Modified Eagle's Medium (DMEM) (Thermo Fisher Scientific) supplemented with 10% fetal bovine serum (FBS). The SW1353 cells were cultivated in an incubator with culture conditions set at 37° C. and 5% CO2. Medium change was performed every two to three days. Cell passage was performed when the cultured cells reached 80-90% of confluence. • 3.
The TGF-β content was determined using an enzyme-linked immunosorbent assay (ELISA) kit (Cat. No. 559119, BD Biosciences) in accordance with the manufacturer's instructions.
(§2) SW1353 cells were divided into 25 groups, including one control group, twelve comparative groups (i.e., comparative groups L-1 to L-6 and B-1 to B-6), and twelve experimental groups (i.e., experimental groups L-1 to L-6 and B-1 to B-6). Each group of the SW1353 cells was incubated in a respective well of a 96-well culture plate containing 200 μL of DMEM at 1×10^4 cells/well, followed by cultivation in an incubator (37° C., 5% CO2) for 24 hours. […] The cell culture of the control group received no treatment.
After cultivation in an incubator (37° C., 5% CO2) for 24 hours, the respective resultant cell culture was subjected to the determination of TGF-β content according to the method described in section 1 of “General Procedures”.
(§3) SW1353 cells were divided into 28 groups, including fourteen comparative groups (i.e., comparative groups 1L to 7L and […]) and fourteen experimental groups (i.e., experimental groups 1L to 7L and 1B to 7B). Each group of the SW1353 cells was incubated in a respective well of a 96-well culture plate containing 200 μL of DMEM at 1×10^4 cells/well, followed by cultivation in an incubator (37° C., 5% CO2) for 24 hours.

SW1353 cells [2] = assay: Proliferation of SW1353 cells (MTT staining, OD570 converted to cell number); format: cell-based, Human; settings: 24 hours
Experimental: as §1
as §2, with “3” for “25”, “group” for “group, twelve comparative groups (i.e., comparative groups L-1 to L-6”, “two” for “B-1 to B-6), and twelve”, “L” for “L-1 to L-6”, “B).” for “B-1 to B-6).”
After cultivation in an incubator (37° C., 5% CO2) for 24 hours, the respective resultant cell culture was stained with 3-(4,5-Dimethylthiazol-2-yl)-2,5-diphenyltetrazolium bromide (MTT), followed by subjecting the stained cells to determination of absorbance at a wavelength of 570 nm by a spectrophotometer. The OD570 values obtained were subsequently converted to cell numbers based on a correlation curve previously prepared by plotting different known cell numbers of the SW1353 cells versus their OD570 values.
as §3
After cultivation in an incubator (37° C., 5% CO2) for 24 hours, the cell number of each group was determined according to the method described in section C of this example. The fold increase of viable cells was calculated using the following Equation (II): C=D/E (II) where C=fold increase of viable cells • D=cell number of respective experimental group or comparative group • E=cell number of corresponding comparative group 1L, 2L, 3L, 4L, 5L, 6L, or 7L

[3] = nutritional component only 50 mg/L
[4] = nutritional component only 100 mg/L
[5] = nutritional component only 50 mg/L, this group is the reference of the ratio
[6] = nutritional component only 100 mg/L, relative to the same component at 50 mg/L

Compound	TGF-β content (SW1353 cells [1]; [3])	TGF-β content (SW1353 cells [1]; [4])	Fold increase of viable cells (SW1353 cells [2]; [5])	Fold increase of viable cells (SW1353 cells [2]; [6])
Chondroitin	38.3 pg/mL	44.2 pg/mL	1.0	1.1
N[C@H]1C(O)O[C@H](CO)[C@@H](O)[C@@H]1O (stereo partly shown) [Glucosamine]	17.1 pg/mL	20.8 pg/mL	1.0	1.1
O=C1O[C@H]([C@@H](O)CO)C(O)=C1O [Vitamin C]	18.2 pg/mL	21.1 pg/mL	1.0	1.0
Sodium hyaluronate	97.3 pg/mL	102.2 pg/mL	1.0	1.1
